Tests used:
[1] = molecular target: T1, Lin28B ZKD (Homo sapiens, UniProt Q6ZN17); test: Fluorescence polarization (FP) assay, Lin28B ZKD with FAM-labeled Let-7 probe; format: binding; conditions: for IC50: 10 uM Lin28B ZKD, 1 nM FAM-labeled Let-7 probe, 1 nM–1000 uM compound
T1 construct: His-tagged human Lin28B ZKD (aa110-174); His-tag; made in house; host or cells: Escherichia coli BL21
T1 sequence (Q6ZN17 110-174): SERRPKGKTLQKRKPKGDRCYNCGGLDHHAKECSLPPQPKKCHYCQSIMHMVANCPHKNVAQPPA
Source text: (§1) ZINC compounds were purchased from Enamine (Kyiv, Ukraine), Life Chemicals Ltd. (Kyiv, Ukraine), or Princeton Biomolecular Research (Princeton, NJ, USA) with >90% purity. Upon receiving the compounds, the molecular masses were validated by LC/MS/MS. His-tagged human Lin28B ZKD (aa110-174), Lin28B CSD+ZKD (aa7-204), and Lin28A ZKD (aa121-187) were expressed in Escherichia coli BL21 cells and purified by immobilized metal ion affinity chromatography (IMAC) with nickel nitrilotriacetic acid (NiNTA) resin and size exclusion chromatography (s75 10/300 GL) as we have previously reported.
(§2) The fluorescein amidites (FAM)-tagged Let-7 probe with the sequence of […] was purchased from Integrated DNA Technologies (IDT). The probe at the concentrations ranging from 1 nM to 50 uM was incubated with Lin28B (ZKD) or Lin28 (CSD+ZKD) to a final volume of 30 uL at room temperature for 20 min. To read the fluorescence, a TECAN 500 machine was used. Fluorescence polarization was calculated using the following equation: P=Fparrallel−Fperpendicular/Fparrallel+Fperpendicular where P is the fluorescence polarization reading, F parallel is the fluorescence intensity acquired from the parallel excitation plane, and F perpendicular is the fluorescence intensity acquired from the perpendicular direction of the excitation plane. The total fluorescence intensity is estimated using the following equation: F=Fparallel+2Fperpendicular
(§3) All the raw FP signal data from the TECAN 500 FP results were analyzed using Prism 8.0 (GraphPad, San Diego, CA, USA); normalized curves were plotted and IC50 values were estimated. All FP data were repeated three to five times.
(§4) To test the predicted compounds by CADD, we established an FP assay using both Lin28B ZKD and Lin28B CSD+ZKD to be incubated with a FAM-labeled Let-7 oligo containing the GGAG motif. To validate that the signals obtained from FP assays reflect the interaction between Lin28 and Let-7, we have tested: (1) 1 nM–50 uM FAM-labeled Let-7 probes with 10 uM Lin28 proteins and observed a dose-dependent reduction of FP signal; (2) 1 nM FAM labeled Let-7 probes with 1 nM–50 uM Lin28 proteins and observed a dose-dependent increase of FP signal; (3) 1 nM–50 uM doses of non-labeled Let-7 oligo to be incubated with 1 nM FAM probe and 10 uM Lin28 proteins, and observed a dose-dependent reduction of FP signal (Figure 2A,B).
Figure 2 Establishment of the Fluorescence Polarization Assay and Initial compound screening. (A) Graphical representation of the FP assay principle. As the labeled probe floats freely in the solution, it rotates more rapidly, producing a low FP signal. When the labeled probe binds to proteins, it rotates slower and produces a high FP signal. (B) In FP assays, probe titration was performed by using 10 uM protein with […] FAM-labeled Let-7 probe (n = 9 replicates). Protein titration was performed by using 1 nM of FAM-labeled Let-7 probe with 1 nM–50 uM Lin28B ZKD protein (n = 9 replicates), and competition titration using 1 nM–50 µM non-labeled Let-7 probe with 10 uM of Lin28B ZKD protein with 1 nM FAM-labeled Let-7 probe (9 replicates). (C) FP assays were used to screen 163 compounds at the concentration of 20 uM using 1 nM of FAM-labeled Let-7 probe with 10 uM Lin28B ZKD protein.
Figure 3 Lin28 inhibitors block the interaction between Lin28B ZKD and Let-7. […]

[2] = tested on: DUNE cells; test: Real-time qPCR of CSC and neuroendocrine biomarkers in DUNE cells; format: cell-based; conditions: 20 uM, 48 h
Experimental: There are several standard molecular techniques, including real-time qPCR, flow cytometry, cell proliferation, colony formation, and immunoblotting assays, that have been reported previously by our lab.
Figure 6 Lin28 inhibitors block the expression of NE and CSC biomarkers. DUNE cells were treated with 20 uM of the indicated compound for 48 h. Real-time qPCR measured RNA levels of neuroendocrine (A) and CSC (B) biomarkers. Three biological replicates were performed and all results are presented as mean +/− SD. p-value ≤ 0.05—(*); ≤0.01—(**); ≤0.001—(***).

[3] = molecular target: T2, Lin28B CSD+ZKD (Homo sapiens, UniProt Q6ZN17); test: Fluorescence polarization (FP) assay, Lin28 CSD+ZKD with FAM-labeled Let-7 probe; format: binding; conditions: 20 uM compound; for inhibition at 20 µM: read-out: inhibition of FP signals
T2 construct: Lin28B CSD+ZKD (aa7-204); His-tag; made in house; host or cells: Escherichia coli BL21
T2 sequence (Q6ZN17 7-204): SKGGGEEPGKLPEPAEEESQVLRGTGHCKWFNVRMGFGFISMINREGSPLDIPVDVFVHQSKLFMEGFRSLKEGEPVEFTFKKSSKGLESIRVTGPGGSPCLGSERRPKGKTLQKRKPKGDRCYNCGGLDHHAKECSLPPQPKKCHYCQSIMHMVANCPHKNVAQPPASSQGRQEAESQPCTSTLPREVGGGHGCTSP
Source text: as §1, §2, §3, §4
We then screened all 163 molecules predicted by the CADD pipeline by using the FP assays with 10 uM of Lin28B ZKD protein and 1 nM of FAM-labeled Let-7 probe. Compounds Li71 and 1632 were also included and served as positive controls. We used 60% inhibition of FP signals by 20 uM of the tested compounds as the cut-off and found 15 active compounds achieving a hit rate of 9% (15/163) (Figure 2C left). […]

| Structure (SMILES) | IC50 [1] | inhibition of FP signals [3] | inhibition at 20 µM [3] | maximum inhibition in FP assay ([1]; Lin28B ZKD titration) | expression of CSC markers (IGF2BP1, CDH2, FOXD3, HEY1, ALDH1A2, CDK6, FOXC1, SIX2, ID4) [2] | expression of neuroendocrine markers (ASCL1, CHGB, SCGN, SYP, STT4) [2] | suppression of CDH2 expression [2] | suppression of FOXD3 expression [2] |
| --- | --- | --- | --- | --- | --- | --- | --- | --- |
| O=c1[nH]c(Nc2ccccc2O)cs1 [Ln15] | ~9 µM | – | ~50% | – | reductions | blocked | – | – |
| O=c1cccc(-c2nc3cc(F)c(O)cc3c(=O)[nH]2)[nH]1 [Ln115] | ~21 µM | – | ~20% | – | reductions | blocked | up to 90% | up to 90% |
| CC(=O)N(C)c1cccc(-c2ccc3nnc(C)n3n2)c1 [compound 1632, reference compound] | – | – | – | ≤ 50% | variable mild inhibitory effects or no inhibition | – | – | – |

Second part, led by results:

| IC50 [1] | inhibition of FP signals [3] | inhibition at 20 µM [3] | maximum inhibition in FP assay ([1]; Lin28B ZKD titration) | Structure (SMILES) | expression of CSC markers (IGF2BP1, CDH2, FOXD3, HEY1, ALDH1A2, CDK6, FOXC1, SIX2, ID4) [2] | expression of neuroendocrine markers (ASCL1, CHGB, SCGN, SYP, STT4) [2] | suppression of CDH2 expression [2] | suppression of FOXD3 expression [2] |
| --- | --- | --- | --- | --- | --- | --- | --- | --- |
| 55 µM | ~ 30% | – | – | CCOc1cccc2c1N[C@@H](c1ccc(C(=O)O)cc1)[C@H]1CC=C[C@@H]21 [Li71, reference compound] | variable mild inhibitory effects or no inhibition | – | – | – |
| ~45 µM | – | ~50% | – | CCc1cc(=O)[nH]c(Nc2cc(Cl)ccc2O)n1 [Ln7] | reductions | blocked | – | – |
